Results as given in patent US11149135B2, “Application of cyclodextrins (CDS) for remediation of perfluoroalkyl substances (PFASS)” (THE FLORIDA INTERNATIONAL UNIVERSITY BOARD OF TRUSTEES, priority 2017, dated 2021).

Columns and labels:
Format in all cases: binding
[1] = 19F NMR association constants of β-CD:legacy PFAS complexes; settings: for K1:1 association constant: 1:1 β-CD:PFAS complex; for K1:1 association constant / K2:1 association constant: aqueous media, room temperature; for K2:1 association constant: 2:1 β-CD:PFAS complex; for Legacy PFAS Kassoc (1:1): 1:1 (unmarked value taken as 1:1)
Protocol: A detailed comprehensive Nuclear Magnetic Resonance (NMR) spectral study of the complexation of PFASs to β-CD was conducted, Weiss-Errico and O'Shea, J. Hazardous Mat. 2017 329, 57-65, with highlights herein. […] Competition studies with adamantane-carboxylic acid and phenol confirmed the persistence of the β-CD:PFAS complex. The aqueous solution pH, ionic strength, and the presence of humic acid have only a modest influence on the β-CD:PFAS complexes. Table 2 gives the association constants for β-CD complexes with a sample of the PFASs studied, including perfluoroheptanoic acid (PFHpA), perfluorooctanoic acid (PFOA), perfluorononanoic acid (PFNA), perfluorooctane sulfonate (PFOS), and perfluorooctanesulfonamide (PFOSA).

[2] = 19F NMR titration, average association constants of PFECAs with α-CD; set-up: key: *: no significant association; settings: 50% D2O/50% H2O, pH 7; averaged over individual fluorines
Protocol: (§1) ^19F NMR spectroscopy was performed with a 400 MHz Bruker instrument with a quad probe (operating at 376.498 MHz for 19F). Hexafluorobenzene was used as the internal standard with a chemical shift of −164.9 ppm. For the titration experiments, the chemical shift of each peak was recorded, and the 1:1 and 2:1 association constants were calculated in GraphPad Prism and Mathworks Matlab by Ramos Cabrer et al.'s, Langmuir 1999, 15, 5489-5495 method.
(§2) The ^19F NMR spectrum of each PFECA was monitored as a function of CD concentration. The individual CD:PFECA association constants were determined via nonlinear least-squares regression analysis of the change in observed chemical shift. The association constants determined for individual fluorines were then averaged to find the average association constant for each PFECA with each CD.

[3] = 19F NMR titration, average association constants of PFECAs with γ-CD; set-up: key: *: no significant association; settings: 50% D2O/50% H2O, pH 7; averaged over individual fluorines
Protocol: as §1, §2

[4] = 19F NMR titration, average association constants of PFECAs with β-CD; settings: for association constant with β-CD: 1:1 β-CD:PFECA; for Average association constant with β-CD (1:1): 1:1 β-CD:PFECA (unmarked values are 1:1); for Average association constant with β-CD (1:1) / Average association constant with β-CD (2:1): pH 7; for Decrease (1:1): decrease of 1:1 β-CD association constant versus legacy PFAS of the same chain length; for Emerging PFAS Kassoc (1:1): 1:1 (unmarked values taken as 1:1); for Average association constant with β-CD (2:1): 2:1 β-CD:PFECA
Protocol: as §1, §2

[5] = estimated based on association constants from PFOA and PFNA

Row | Compound | Average association constant with α-CD [2] | Average association constant with γ-CD [3] | Average association constant with β-CD (1:1) [4] | Decrease (1:1) [4] | Emerging PFAS Kassoc (1:1) ([4]; β-CD:PFECA) | K1:1 association constant [1] | K2:1 association constant [1] | other results
1 | O=C(O)C(F)(F)C(F)(F)C(F)(F)C(F)(F)C(F)(F)C(F)(F)C(F)(F)C(F)(F)C(F)(F)F [PFDA, perfluorodecanoic acid] |  |  |  |  |  |  |  | Legacy PFAS Kassoc (1:1), estimated [1, 5]: ~10^5 (1:1) M^−1; Legacy PFAS Kassoc (2:1), estimated [1, 5]: ~10^3 (2:1) M^−1
2 | O=C(O)C(F)(F)C(F)(F)C(F)(F)OC(F)(C(F)(F)F)C(F)(F)F [PFDMMOBA, perfluoro(5-oxa-6-dimethylhexanoic) acid] | * | 6.85 +/− 1.82 × 10^2 M^−1 | 2.66 +/− 0.61 × 10^4 M^−1 | ~10 | 2.66 +/− 0.61 × 10^4 M^−1 |  |  | association constant with β-CD [4]: 26600 M⁻¹; stronger complexation with β-CD than PFPrOPrA ([4]; ratio of β-CD association constants, PFDMMOBA versus PFPrOPrA): ~40 ×
3 | O=C(O)C(F)(F)C(F)(F)C(F)(F)C(F)(F)C(F)(F)C(F)(F)F [PFHpA, perfluoroheptanoic acid] |  |  |  |  |  | 4.30 ± 0.85 × 10^5 M^−1 | 2.30 ± 0.27 × 10^3 M^−1 | Legacy PFAS Kassoc (1:1) ([1]; β-CD:legacy PFAS): 4.30 +/− 0.85 x 10^5 (1:1) M^−1; Legacy PFAS Kassoc (2:1) ([1]; β-CD:legacy PFAS, 2:1): 2.30 +/− 0.27 × 10^3 (2:1) M^−1
4 | O=C(O)C(F)(F)C(F)(F)OC(F)(F)F [PFMOBA, perfluoro(4-oxapentanoic) acid] | 3.37 +/− 1.40 × 10^1 M^−1 | * | 1.48 +/− 0.36 × 10^3 M^−1 | ~10 | 1.48 +/− 0.36 × 10^3 M^−1 |  |  | association constant with β-CD [4]: 1480 M⁻¹
5 | O=C(O)C(F)(F)OC(F)(F)F [PFMOPrA, Perfluoro(3-oxabutanoic) acid] | 2.60 +/− 1.14 × 10^1 M^−1 | * | 1.54 +/− 0.52 × 10^2 M^−1 | <10 | 1.54 +/− 0.52 × 10^2 M^−1 |  |  | 
6 | O=C(O)C(F)(F)C(F)(F)C(F)(F)C(F)(F)C(F)(F)C(F)(F)C(F)(F)C(F)(F)F [PFNA, perfluorononanoic acid] |  |  |  |  |  | 3.37 ± 0.35 × 10^5 M^−1 | 7.80 ± 0.66 × 10^3 M^−1 | 
7 | O=C(O)C(F)(F)OC(F)(F)C(F)(F)OC(F)(F)C(F)(F)C(F)(F)C(F)(F)F [PFO2DA, perfluoro(3,6-dioxadecanoic) acid] | * | 1.39 +/− 0.38 × 10^3 M^−1 | 1.38 +/− 0.40 × 10^4 M^−1 | ~10 | 1.38 +/− 0.40 × 10^4 (1:1) M^−1 |  |  | Average association constant with β-CD (2:1) [4]: 7.72 +/− 2.43 × 10^3 M^−1
8 | O=C(O)C(F)(F)OC(F)(F)C(F)(F)OC(F)(F)F [PFO2HpA, perfluoro(3,6-dioxheptanoic) acid] | 5.34 +/− 0.48 × 10^1 M^−1 | 8.43 +/− 3.24 × 10^1 M^−1 | 4.74 +/− 2.04 × 10^2 M^−1 | ~1000 | 4.74 +/− 2.04 × 10^2 (1:1) M^−1 |  |  | Average association constant with β-CD (2:1) [4]: 3.87 +/− 1.40 × 10^2 M^−1; Emerging PFAS Kassoc (2:1) ([4]; β-CD:PFECA, 2:1): 3.87 +/− 1.40 × 10^2 (2:1) M^−1
9 | O=S(=O)(O)C(F)(F)C(F)(F)C(F)(F)C(F)(F)C(F)(F)C(F)(F)C(F)(F)C(F)(F)F [PFOS, perfluorooctane sulfonate] |  |  |  |  |  | 6.96 ± 0.79 × 10^5 M^−1 | 5.95 ± 1.70 × 10^4 M^−1 | 
10 | NS(=O)(=O)C(F)(F)C(F)(F)C(F)(F)C(F)(F)C(F)(F)C(F)(F)C(F)(F)C(F)(F)F [PFOSA, perfluorooctanesulfonamide] |  |  |  |  |  | 1.02 ± 0.16 × 10^5 M^−1 | 2.70 ± 0.57 × 10^4 M^−1 | 
11 | O=C(O)C(F)(F)C(F)(F)C(F)(F)C(F)(F)F [PFPA, perfluoropentanoic acid] |  |  |  |  |  |  |  | Legacy PFAS Kassoc (1:1) ([1]; β-CD:legacy PFAS): 7.60 +/− 0.44 × 10^2 M^−1
